The values below come from ChEMBL document CHEMBL1147964, “Double mode of inhibition-inducing interactions of 1,4-naphthoquinone with urease: arylation versus oxidation of enzyme thiols” (Bioorg Med Chem, 2007).

Assay [1] has as its target Urease (Canavalia ensiformis) (UniProt P07374). The assay is described as follows: Reactivation of jack bean urease activity in presence of DTT after 40 mins.
Assay [2] shares this target. In words: Inhibition of jack bean urease assessed as residual activity at 30 uM.
Assay [3] shares this target. The assay is described as follows: Inhibition of jack bean urease assessed as residual activity at 50 uM.
Assay [4] has the same target. In words: Inhibition of jack bean urease assessed as residual activity at 85 uM.

Urease (Canavalia ensiformis), sequence (P07374 whole entry, looked up): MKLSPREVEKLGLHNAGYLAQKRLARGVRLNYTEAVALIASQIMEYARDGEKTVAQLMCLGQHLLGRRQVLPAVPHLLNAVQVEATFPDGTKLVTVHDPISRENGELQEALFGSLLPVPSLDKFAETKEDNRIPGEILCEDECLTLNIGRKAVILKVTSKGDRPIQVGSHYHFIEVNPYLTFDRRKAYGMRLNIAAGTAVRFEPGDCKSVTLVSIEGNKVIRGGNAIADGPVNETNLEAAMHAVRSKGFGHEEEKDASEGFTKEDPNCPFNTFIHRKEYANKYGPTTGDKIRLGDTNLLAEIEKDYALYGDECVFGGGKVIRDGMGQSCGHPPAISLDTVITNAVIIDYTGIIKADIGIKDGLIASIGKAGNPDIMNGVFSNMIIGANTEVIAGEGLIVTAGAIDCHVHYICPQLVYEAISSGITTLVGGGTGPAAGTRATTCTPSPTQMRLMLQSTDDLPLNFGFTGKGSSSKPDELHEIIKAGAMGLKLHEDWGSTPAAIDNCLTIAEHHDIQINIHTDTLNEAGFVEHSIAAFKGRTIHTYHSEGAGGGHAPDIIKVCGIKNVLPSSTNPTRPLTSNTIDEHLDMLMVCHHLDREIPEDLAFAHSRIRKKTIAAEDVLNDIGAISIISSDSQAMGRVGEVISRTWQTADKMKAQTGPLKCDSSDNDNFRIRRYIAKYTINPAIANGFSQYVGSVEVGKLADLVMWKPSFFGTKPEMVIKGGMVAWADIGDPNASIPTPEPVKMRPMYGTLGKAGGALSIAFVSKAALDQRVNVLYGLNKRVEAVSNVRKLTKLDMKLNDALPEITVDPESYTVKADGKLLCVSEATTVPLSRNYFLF

Consider `O=C1C=CC(=O)c2ccccc21`, for which the Activity in assay [1] came out at 40%; in assay [2] it was 40%; in assay [3], 24%; in assay [4], 7%.
